The text below walks through data of patent US20140135359A1, “METHODS OF DESIGNING, PREPARING, AND USING NOVEL PROTONOPHORES” (priority 2012, published 2014).

SMILES strings stand for the structures.

The subject of data set [1] is H4IIE hepatocytes. Briefly: Lactate dehydrogenase (LDH) release, cellular viability. The following applies: 25 μM, 16 h. It counts as cell-based, murine. Here is the method: 2.4 Glucose-6-phosphatase activity in H4IIE hepatocytes: H4IIE murine hepatocytes (American Type Culture Collection) were cultured to confluence in 12-well plates in DMEM supplemented with 10% FBS and antibiotics. […] Effects of test compounds on cellular viability were assessed by measuring the release of lactate dehydrogenase (LDH) into the culture medium at the end of a 16 h treatment using a commercial kit (Cytotoxicity Detection Kit; Roche Diagnostics; Laval, QC) as per the manufacturer's instructions; LDH release was expressed as % of total (medium+lysate) LDH content for each well. […] Glucose-6-phosphatase (G6Pase) activity was assessed by measuring the rate of glucose formation in the presence of a non-limiting amount of glucose-6-phosphate (G6P), as done by others [39B, 40B]. Glucose production was measured with a commercial glucose assay kit (AutoKit Glucose; Wako Diagnostics; Richmond, Va.). […] Absorbance of the supernatant was measured at 505 nm at ambient temperature and glucose concentration was calculated from a standard curve performed in parallel. Control wells without exogenous G6P were included on each plate for each treatment condition and activity measured from these wells was subtracted from activity measured in the presence of exogenous G6P. G6Pase activity calculated in this way was then expressed normalized to protein content on a well-by-well basis. […]

Data set [2] deals with differentiated C2C12 skeletal muscle cells. Kind of data set: 3H-deoxyglucose uptake in C2C12 myotubes. The format is cell-based, murine. Conditions: 18 h. The protocol: 2.3 ^3H-deoxyglucose uptake in C2C12 myotubes: Cell culture and the ^3H-deoxyglucose uptake assay were performed as previously described [34B, 35B, 37B]. Briefly, C2C12 murine skeletal myoblasts (American Type Culture Collection; Manassas, Va.) were cultured under standard conditions in 12-well plates. Cells were proliferated to 80% confluence in high-glucose Dulbecco's modified Eagle's medium (DMEM; Wisent; St-Bruno, QC) supplemented with 10% fetal bovine serum (FBS; Wisent), 10% horse serum (HS), and antibiotics. Differentiation into multinucleated myotubes was then promoted with DMEM supplemented with 2% HS and antibiotics. All uptake assays were performed on 7-day differentiated cells, and treatments were timed accordingly. […] DMSO concentration was fixed at 0.1% for all conditions. Cells were routinely inspected for abnormal morphology by phase-contrast microscopy at the conclusion of the treatment period. […] Cells were then washed twice in glucose-free KPB at 37° C. before incubation for exactly 10 min at 37° C. in glucose-free KPB containing 0.5 μCi/ml 2-deoxy-D-[1-^3H]glucose (Amersham Biosciences; Buckinghamshire, UK). Cells were then placed on ice and immediately washed three times with ice-cold KPB. Cells were inspected for monolayer detachment and lysed in 0.1 N NaOH with scraping. […] Three independent experiments of 18 h treatment duration were performed for each of the selected test compounds, with three replicates per condition per experiment. Vehicle-control and 50 μM 2,4-dinitrophenol conditions were included on every plate. Some compounds were also tested at 50 μM under the following conditions: a 15 h treatment with vehicle only followed by a 3 h treatment with the test compound; a 15 h treatment with the test compound followed by a 3 h repeat treatment.
Protocol for ^3H-deoxyglucose uptake assay in C2C12 or other skeletal muscle cells; C2C12 murine skeletal myoblasts (American Type Culture Collection; Manassas, Va.) may be cultured under standard conditions in 12-well plates. Cells may be proliferated to 80% confluence in high-glucose Dulbecco's modified Eagle's medium (DMEM) supplemented with 10% fetal bovine serum (FBS), 10% horse serum (HS), and antibiotics. Differentiation into multinucleated myotubes may be then promoted with DMEM supplemented with 2% HS and antibiotics. All uptake assays may be performed on 7-day differentiated cells, and treatment onset may be timed accordingly. Cells may be treated with reference substances (such as metformin (100 or 400 μM), phenformin (100 μM), or 2,4-dinitrophenol 10-100 μM), compounds described herein, or vehicle (DMSO) in complete differentiation medium. DMSO concentration may be fixed at 0.1% for all conditions. Cells may be routinely inspected for abnormal morphology by phase-contrast microscopy at the conclusion of the treatment period. […] Cells may be then washed twice in glucose-free KPB at 37° C. before incubation for exactly 10 min at 37° C. in glucose-free KPB containing 0.5 μCi/ml 2-deoxy-D-[1-3H]glucose (Amersham Biosciences; Buckinghamshire, UK). Cells may be then placed on ice and immediately washed three times with ice-cold KPB. Cells may be inspected for monolayer detachment and lysed in 0.1 N NaOH with scraping. […] Three or more independent experiments of 18 hours treatment duration may be performed for each test compound, with three or more replicates per condition per experiment. Vehicle-control and 2,4-dinitrophenol conditions may be included on every plate for the purpose of standardizing.

Data set [3] concerns isolated rat liver mitochondria. Kind of data set: Residual functional capacity / inhibitory effect on ADP-stimulated (state 3) oxygen consumption. The format is biochemical. The following applies: for Residual capacity (%): functional capacity (state 3 minus state 4 rate) as % of vehicle-treated mitochondria.

For `O=[N+]([O-])c1ccc(O)c([N+](=O)[O-])c1` [2,4-dinitrophenol], the “release of lactate dehydrogenase” value in data set [1] was “comparable to that of vehicle-treated cells”. In addition, the “increase in basal glucose uptake” value was 66% in data set [2] (25 μM), 119% in data set [2] (50 μM) and 169% in data set [2] (100 μM). Further, the “Inhibitory effect (%)” value in data set [3] (test conc. 25 μM) and in data set [3] (test conc. 100 μM) was 0% each time. Also, the entries for the “Residual capacity (%)” value in data set [3] (test conc. 25 μM) and in data set [3] (test conc. 100 μM) were 14 ± 6% and 0 ± 0%, respectively.
